From ChEMBL document CHEMBL1143824, “National survey on the susceptibility of Bacteroides fragilis group: report and analysis of trends in the United States from 1997 to 2004” (2007)
In brackets after ≈: the same amount, converted by molar mass.

What was measured:
Format in all cases: functional
Bacteroides stercoris [1] = experiment: Antimicrobial activity against Bacteroides stercoris assessed as percent resistant isolates
Bacteroides fragilis [2] = experiment: Antimicrobial activity against Bacteroides fragilis isolates by agar dilution method
[3] = tested on: Parabacteroides distasonis; experiment: Antimicrobial activity against Bacteroides distasonis isolates by agar dilution method
Bacteroides ovatus [4] = experiment: Antimicrobial activity against Bacteroides ovatus isolates by agar dilution method
[5] = tested on: Bacteroides thetaiotaomicron; experiment: Antimicrobial activity against Bacteroides thetaiotaomicron isolates by agar dilution method
Bacteroides uniformis [6] = experiment: Antimicrobial activity against Bacteroides uniformis isolates by agar dilution method
Phocaeicola vulgatus [7] = experiment: Antimicrobial activity against Bacteroides vulgatus isolates by agar dilution method
Bacteroides caccae [8] = experiment: Antimicrobial activity against Bacteroides caccae isolates by agar dilution method
Bacteroides eggerthii [9] = experiment: Antimicrobial activity against Bacteroides eggerthii isolates by agar dilution method
Bacteroides stercoris [10] = experiment: Antimicrobial activity against Bacteroides stercoris isolates by agar dilution method
Parabacteroides merdae [11] = experiment: Antimicrobial activity against Bacteroides merdae isolates by agar dilution method
Bacteroides fragilis [12] = experiment: Antimicrobial activity against Bacteroides fragilis assessed as percent resistant isolates
[13] = tested on: Parabacteroides distasonis; experiment: Antimicrobial activity against Bacteroides distasonis assessed as percent resistant isolates
Bacteroides ovatus [14] = experiment: Antimicrobial activity against Bacteroides ovatus assessed as percent resistant isolates
[15] = tested on: Bacteroides thetaiotaomicron; experiment: Antimicrobial activity against Bacteroides thetaiotaomicron assessed as percent resistant isolates
Bacteroides uniformis [16] = experiment: Antimicrobial activity against Bacteroides uniformis assessed as percent resistant isolates
Phocaeicola vulgatus [17] = experiment: Antimicrobial activity against Bacteroides vulgatus assessed as percent resistant isolates
Bacteroides caccae [18] = experiment: Antimicrobial activity against Bacteroides caccae assessed as percent resistant isolates
Bacteroides eggerthii [19] = experiment: Antimicrobial activity against Bacteroides eggerthii assessed as percent resistant isolates
Parabacteroides merdae [20] = experiment: Antimicrobial activity against Bacteroides merdae assessed as percent resistant isolates

Row | SMILES | Activity (Bacteroides stercoris [1]) [%] | MIC (Bacteroides fragilis [2]) [µg/mL] | MIC90 (Bacteroides fragilis [2]) [µg/mL] | MIC90 [3] [µg/mL] | MIC [5] [µg/mL] | MIC90 [5] [µg/mL] | MIC (Bacteroides uniformis [6]) [µg/mL] | MIC90 (Bacteroides uniformis [6]) [µg/mL] | MIC (Phocaeicola vulgatus [7]) [µg/mL] | MIC90 (Phocaeicola vulgatus [7]) [µg/mL] | MIC (Bacteroides caccae [8]) [µg/mL] | MIC90 (Bacteroides caccae [8]) [µg/mL] | MIC (Bacteroides eggerthii [9]) [µg/mL] | MIC90 (Bacteroides eggerthii [9]) [µg/mL] | MIC (Bacteroides stercoris [10]) [µg/mL] | MIC90 (Bacteroides stercoris [10]) [µg/mL] | MIC (Parabacteroides merdae [11]) [µg/mL] | MIC90 (Parabacteroides merdae [11]) [µg/mL] | Activity (Bacteroides fragilis [12]) [%] | Activity [13] [%] | also measured
1 | CN(C)c1cc(NC(=O)CNC(C)(C)C)c(O)c2c1C[C@H]1C[C@H]3[C@H](N(C)C)C(O)=C(C(N)=O)C(=O)[C@@]3(O)C(O)=C1C2=O [TIGECYCLINE] | 7.2 | 1.59 (≈ 2.71 µM) | 8 (≈ 13.7 µM) | 8 (≈ 13.7 µM) | 1.57 (≈ 2.68 µM) | 8 (≈ 13.7 µM) | 0.77 (≈ 1.31 µM) | 4 (≈ 6.83 µM) | 1.05 (≈ 1.79 µM) | 4 (≈ 6.83 µM) | 1.51 (≈ 2.58 µM) | 8 (≈ 13.7 µM) | 1.51 (≈ 2.58 µM) | 8 (≈ 13.7 µM) | 1.51 (≈ 2.58 µM) | 8 (≈ 13.7 µM) | 1.51 (≈ 2.58 µM) | 8 (≈ 13.7 µM) | 5.1 | 2.1 | MIC [3]: 2.09 µg/mL (≈ 3.57 µM); MIC (Bacteroides ovatus [4]): 1.52 µg/mL (≈ 2.6 µM); MIC90 (Bacteroides ovatus [4]): 8 µg/mL (≈ 13.7 µM); Activity (Bacteroides ovatus [14]): 3.3%; Activity [15]: 3.6%; Activity (Bacteroides uniformis [16]): 3.4%; Activity (Phocaeicola vulgatus [17]): 1.6%; Activity (Bacteroides caccae [18]): 7.2%; Activity (Bacteroides eggerthii [19]): 7.2%; Activity (Parabacteroides merdae [20]): 7.2%
2 | CCC[C@@H]1C[C@@H](C(=O)NC([C@H](C)Cl)[C@H]2O[C@H](SC)[C@H](O)[C@@H](O)[C@H]2O)N(C)C1 (single isomer, unassigned) [CLINDAMYCIN] | 28.2 | 1.89 (≈ 4.45 µM) | 256 (≈ 602 µM) | 256 (≈ 602 µM) | 6.62 (≈ 15.6 µM) | 256 (≈ 602 µM) | 4.22 (≈ 9.93 µM) | 256 (≈ 602 µM) | 4.31 (≈ 10.1 µM) | 256 (≈ 602 µM) | 3.63 (≈ 8.54 µM) | 256 (≈ 602 µM) | 3.63 (≈ 8.54 µM) | 256 (≈ 602 µM) | 3.63 (≈ 8.54 µM) | 256 (≈ 602 µM) | 3.63 (≈ 8.54 µM) | 256 (≈ 602 µM) | 19.3 | 29.6 | MIC [3]: 4.51 µg/mL (≈ 10.6 µM); MIC (Bacteroides ovatus [4]): 5.89 µg/mL (≈ 13.9 µM); MIC90 (Bacteroides ovatus [4]): 256 µg/mL (≈ 602 µM); Activity (Bacteroides ovatus [14]): 33.4%; Activity [15]: 33.3%; Activity (Bacteroides uniformis [16]): 28.9%; Activity (Phocaeicola vulgatus [17]): 35.3%; Activity (Bacteroides caccae [18]): 28.2%; Activity (Bacteroides eggerthii [19]): 28.2%; Activity (Parabacteroides merdae [20]): 28.2%
3 | COC1(NC(=O)Cc2cccs2)C(=O)N2C(C(=O)O)=C(COC(N)=O)CS[C@@H]21 (single isomer, unassigned) [CEFOXITIN] | 10.9 | 15.4 (≈ 36.1 µM) | 32 (≈ 74.9 µM) | 128 (≈ 299 µM) | 29.5 (≈ 69 µM) | 64 (≈ 150 µM) | 12.9 (≈ 30.2 µM) | 32 (≈ 74.9 µM) | 10.5 (≈ 24.6 µM) | 32 (≈ 74.9 µM) | 17.6 (≈ 41.2 µM) | 64 (≈ 150 µM) | 17.6 (≈ 41.2 µM) | 64 (≈ 150 µM) | 17.6 (≈ 41.2 µM) | 64 (≈ 150 µM) | 17.6 (≈ 41.2 µM) | 64 (≈ 150 µM) | 5.2 | 29.9 | MIC [3]: 34.2 µg/mL (≈ 80 µM); MIC (Bacteroides ovatus [4]): 27.2 µg/mL (≈ 63.5 µM); MIC90 (Bacteroides ovatus [4]): 64 µg/mL (≈ 150 µM); Activity (Bacteroides ovatus [14]): 17.2%; Activity [15]: 16.8%; Activity (Bacteroides uniformis [16]): 7.5%; Activity (Phocaeicola vulgatus [17]): 0.3%; Activity (Bacteroides caccae [18]): 10.9%; Activity (Bacteroides eggerthii [19]): 10.9%; Activity (Parabacteroides merdae [20]): 10.9%
4 | C[C@@H](O)[C@H]1C(=O)N2C(C(=O)O)=C(SCCNC=N)C[C@H]12 [IMIPENEM ANHYDROUS] | 0 | 0.31 (≈ 1.04 µM) | 1 (≈ 3.34 µM) | 2 (≈ 6.68 µM) | 0.45 (≈ 1.5 µM) | 1 (≈ 3.34 µM) | 0.43 (≈ 1.44 µM) | 1 (≈ 3.34 µM) | 0.5 (≈ 1.67 µM) | 1 (≈ 3.34 µM) | 0.35 (≈ 1.17 µM) | 1 (≈ 3.34 µM) | 0.35 (≈ 1.17 µM) | 1 (≈ 3.34 µM) | 0.35 (≈ 1.17 µM) | 1 (≈ 3.34 µM) | 0.35 (≈ 1.17 µM) | 1 (≈ 3.34 µM) | 0.5 | 0.4 | MIC [3]: 0.95 µg/mL (≈ 3.17 µM); MIC (Bacteroides ovatus [4]): 0.39 µg/mL (≈ 1.3 µM); MIC90 (Bacteroides ovatus [4]): 1 µg/mL (≈ 3.34 µM); Activity (Bacteroides ovatus [14]): 0.2%; Activity [15]: 0.2%; Activity (Bacteroides uniformis [16]): 0.5%; Activity (Phocaeicola vulgatus [17]): 0.3%; Activity (Bacteroides caccae [18]): 0%; Activity (Bacteroides eggerthii [19]): 0%; Activity (Parabacteroides merdae [20]): 0%
5 | C[C@@H](O)[C@H]1C(=O)N2C(C(=O)O)=C(S[C@@H]3CN[C@H](C(=O)N(C)C)C3)[C@H](C)[C@H]12 [MEROPENEM] | 0.5 | 0.38 (≈ 0.991 µM) | 1 (≈ 2.61 µM) | 2 (≈ 5.22 µM) | 0.47 (≈ 1.23 µM) | 1 (≈ 2.61 µM) | 0.41 (≈ 1.07 µM) | 1 (≈ 2.61 µM) | 0.47 (≈ 1.23 µM) | 1 (≈ 2.61 µM) | 0.4 (≈ 1.04 µM) | 1 (≈ 2.61 µM) | 0.4 (≈ 1.04 µM) | 1 (≈ 2.61 µM) | 0.4 (≈ 1.04 µM) | 1 (≈ 2.61 µM) | 0.4 (≈ 1.04 µM) | 1 (≈ 2.61 µM) | 1 | 1.1 | Activity [15]: 0.1%; Activity (Bacteroides uniformis [16]): 0.5%; Activity (Phocaeicola vulgatus [17]): 0%; Activity (Bacteroides caccae [18]): 0.5%; Activity (Bacteroides eggerthii [19]): 0.5%; Activity (Parabacteroides merdae [20]): 0.5%
6 | COc1c(N2C[C@@H]3CCCN[C@@H]3C2)c(F)cc2c(=O)c(C(=O)O)cn(C3CC3)c12 [MOXIFLOXACIN] | 36.4 | 1.83 (≈ 4.56 µM) | 8 (≈ 19.9 µM) | 16 (≈ 39.9 µM) | 3.71 (≈ 9.24 µM) | 32 (≈ 79.7 µM) | 5.57 (≈ 13.9 µM) | 32 (≈ 79.7 µM) | 7.92 (≈ 19.7 µM) | 64 (≈ 159 µM) | 3.85 (≈ 9.59 µM) | 32 (≈ 79.7 µM) | 3.85 (≈ 9.59 µM) | 32 (≈ 79.7 µM) | 3.85 (≈ 9.59 µM) | 32 (≈ 79.7 µM) | 3.85 (≈ 9.59 µM) | 32 (≈ 79.7 µM) | 27.3 | 29.2 | MIC [3]: 2.32 µg/mL (≈ 5.78 µM); MIC (Bacteroides ovatus [4]): 5.49 µg/mL (≈ 13.7 µM); MIC90 (Bacteroides ovatus [4]): 32 µg/mL (≈ 79.7 µM); Activity (Bacteroides ovatus [14]): 38.3%; Activity [15]: 26.3%; Activity (Bacteroides uniformis [16]): 38.6%; Activity (Phocaeicola vulgatus [17]): 54.7%; Activity (Bacteroides caccae [18]): 36.4%; Activity (Bacteroides eggerthii [19]): 36.4%; Activity (Parabacteroides merdae [20]): 36.4%
7 | C[C@@H](O)[C@H]1C(=O)N2C(C(=O)O)=C(SC3CNC(C(=O)Nc4cccc(C(=O)O)c4)C3)[C@H](C)[C@H]12 (single isomer, unassigned) [ERTAPENEM] | 0.5 | 0.79 (≈ 1.66 µM) | 2 (≈ 4.21 µM) | 4 (≈ 8.41 µM) | 1.69 (≈ 3.55 µM) | 4 (≈ 8.41 µM) | 0.88 (≈ 1.85 µM) | 2 (≈ 4.21 µM) | 0.82 (≈ 1.72 µM) | 2 (≈ 4.21 µM) | 1.03 (≈ 2.17 µM) | 4 (≈ 8.41 µM) | 1.03 (≈ 2.17 µM) | 4 (≈ 8.41 µM) | 1.03 (≈ 2.17 µM) | 4 (≈ 8.41 µM) | 1.03 (≈ 2.17 µM) | 4 (≈ 8.41 µM) | 1.4 | 1.5 | MIC [3]: 1.77 µg/mL (≈ 3.72 µM); MIC (Bacteroides ovatus [4]): 1.58 µg/mL (≈ 3.32 µM); MIC90 (Bacteroides ovatus [4]): 4 µg/mL (≈ 8.41 µM); Activity (Bacteroides ovatus [14]): 0.6%; Activity [15]: 0.4%; Activity (Bacteroides uniformis [16]): 0.5%; Activity (Phocaeicola vulgatus [17]): 0.3%; Activity (Bacteroides caccae [18]): 0.5%; Activity (Bacteroides eggerthii [19]): 0.5%; Activity (Parabacteroides merdae [20]): 0.5%
